According to patent US20260159520A1, “HETEROBIFUNCTIONAL COMPOUNDS AND METHODS OF TREATING DISEASE” (Halda Therapeutics OpCo, Inc., priority 2022, published 2026):

Assays:
[1] = target: T1, androgen receptor (Homo sapiens, UniProt P10275); test: Binding affinity to androgen receptor ([3H]methyltrienolone radioligand, cell cytosol); details: Table 6
T1 construct: endogenous in cells; host or cells: unnamed cells (cytosol fraction)
T1 sequence (P10275 1-920): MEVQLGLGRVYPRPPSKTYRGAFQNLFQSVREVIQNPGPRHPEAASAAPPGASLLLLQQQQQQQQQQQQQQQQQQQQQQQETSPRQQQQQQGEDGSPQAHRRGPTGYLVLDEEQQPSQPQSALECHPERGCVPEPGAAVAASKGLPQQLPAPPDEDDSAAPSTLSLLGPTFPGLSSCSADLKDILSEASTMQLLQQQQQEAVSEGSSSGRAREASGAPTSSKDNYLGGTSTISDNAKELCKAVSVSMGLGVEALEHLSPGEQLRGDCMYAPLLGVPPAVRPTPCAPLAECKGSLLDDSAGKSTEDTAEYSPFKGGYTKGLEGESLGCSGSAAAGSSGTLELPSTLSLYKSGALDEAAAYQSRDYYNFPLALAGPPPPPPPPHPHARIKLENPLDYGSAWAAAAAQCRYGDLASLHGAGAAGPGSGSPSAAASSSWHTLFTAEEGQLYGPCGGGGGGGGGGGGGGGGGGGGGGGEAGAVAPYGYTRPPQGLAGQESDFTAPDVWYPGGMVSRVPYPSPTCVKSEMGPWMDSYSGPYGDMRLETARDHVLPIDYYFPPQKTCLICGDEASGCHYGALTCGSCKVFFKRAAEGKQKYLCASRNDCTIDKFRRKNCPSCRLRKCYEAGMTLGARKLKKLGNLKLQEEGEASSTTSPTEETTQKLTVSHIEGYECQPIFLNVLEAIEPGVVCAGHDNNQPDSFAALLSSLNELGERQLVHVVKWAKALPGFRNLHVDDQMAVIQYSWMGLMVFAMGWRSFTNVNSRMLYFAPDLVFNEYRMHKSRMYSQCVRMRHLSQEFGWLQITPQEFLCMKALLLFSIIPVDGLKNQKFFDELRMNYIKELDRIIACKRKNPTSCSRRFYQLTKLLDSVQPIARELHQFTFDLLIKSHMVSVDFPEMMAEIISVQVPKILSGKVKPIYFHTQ
Method: Fractions of cell cytosol ([…]) were incubated for 24 hr at 4° C. with 1 nM [^3H]methyltrienolone in the absence or presence of the test compound in a buffer containing 25 mM Hepes-Tris (pH 7.4), 1 mM EDTA, 10 mM Na2MoO4, 2 mM DTT, 5 μM triamcinolone acetonide, and 10% glycerol. Nonspecific binding was determined in the presence of 1 μM testosterone. Following incubation, the samples were filtered rapidly under vacuum through glass fiber filters (GF/B, Packard) presoaked with 0.3% PEI and rinsed several times with ice-cold 50 mM Tris-HCl using a 96-sample cell harvester (Unifilter, Packard). The filters were dried then counted for radioactivity in a scintillation counter (Topcount, Packard) using a scintillation cocktail (Microscint 0, Packard). The results are expressed as a percent inhibition of the control radioligand specific binding. The standard reference compound is testosterone, which is tested in each experiment at several concentrations to obtain a competition curve from which its IC50 is calculated.

[2] = tested on: T-Rex 293 cell line SC cells lacking increased expression of progesterone receptor isoform B protein; test: Cellular growth inhibition, T-Rex 293 SC cells without doxycycline; assay type: cell-based; details: not exposed to doxycycline, 72 hours, CellTiter-Glo 2.0
Method: (§1) The following types of cells were prepared for this experiment: (i) a T-Rex 293 cell line having increased expression of progesterone receptor isoform B protein due to exposure to doxycycline and (ii) a T-Rex 293 cell line lacking increased expression of progesterone receptor isoform B protein. Ability of the test compounds to inhibit proliferation of the foregoing cell types was evaluated according to the procedures set forth below.
(§2) The doxycycline-inducible progesterone receptor isoform B protein expressing cell line was established using the following protocol: T-Rex 293 cells were purchased from Invitrogen (Cat #R71007) and transfected using Lipofectamine 2000 with the wild-type progesterone receptor B protein sequence cloned into the pcDNA4/TO vector. Transfected cells were selected using 400 μg/mL Zeocin (Invitrogen Cat #R25001). Following selection, single clones were raised and maintained in Dulbecco's Modified Eagle Medium (DMEM) supplemented with 10% w/w Tetracycline-free fetal bovine serum (FBS) and 250 μg/mL Zeocin. Clones were analyzed for expression of progesterone receptor isoform B protein in the presence and absence of 10 ng/mL doxycycline (Sigma Cat #D9891), and a single doxycycline-inducible clone (hereinafter “SC”) was selected for use in downstream assays.
(§3) The SC cells were seeded on poly-D-lysine coated, black clear-bottom 384-well plates at 2500/well, in 25 μL Phenol Red Free Dulbecco's Modified Eagle Medium (DMEM) supplemented with 10% w/w charcoal-dextran treated fetal bovine serum (FBS) and 1% w/w pen-strep, with or without 10 ng/mL doxycycline. Pen-Strep is a commercially available mixture of penicillin G and streptomycin, which is used in mammalian cell culture media to prevent bacterial contamination. Phenol Red Free Dulbecco's Modified Eagle Medium (DMEM) supplemented with 10% w/w charcoal-dextran treated fetal bovine serum (FBS) and 1% w/w pen-strep, with or without 10 ng/mL doxycycline is herein referred to as Treatment Medium. Following seeding of cells in the plates, the plates were spun at 300×g for 30 seconds, then equilibrated to room temperature for 30 minutes, and then deposited in a humidified tissue culture incubator maintained at 37° C. with 5% CO2.
(§4) At 24 hours after seeding of the cells, dilutions of test compound were prepared in DMSO and dissolved in Treatment Medium, to achieve a final DMSO concentration of 0.5% w/w, thereby providing the Test Compound Solution. A 25 μL aliquot of the Test Compound Solution was added to cells in the well plates. An equal volume of a solution containing DMSO and Treatment Medium was used as a negative control. Following treatment of cells with Test Compound Solution or said equal volume of a solution containing DMSO and Treatment Medium, the plates were spun at 300×g for 30 seconds, and then left in an incubator for 72 hours.
(§5) At the end of the treatment duration, cell viability was quantified with CellTiter-Glo 2.0 reagent (Promega Cat #G9243). For this purpose, plates were equilibrated to room temperature for 30 minutes, and then 25 μL of CellTiter-Glo 2.0 reagent was added to cells in the plate wells. Plates were then agitated on a shaker for two minutes at 500 rpm and subsequently incubated at room temperature for 10 minutes. Following incubation, the plates were spun at 3000×g for 30 seconds, then sealed with an optical adhesive cover, and luminescence readings were measured with an EnVision Plate Reader (Perkin Elmer).
(§6) Data was normalized using zero luminescence for baseline. A four-parameter non-linear regression curve fit was applied to dose-response data in GraphPad Prism data analysis software to determine the half-maximal growth inhibitory concentration (GI50) for each test compound.

[3] = tested on: T-Rex 293 cell line SC cells having increased expression of progesterone receptor isoform B protein; test: Cellular growth inhibition, T-Rex 293 SC cells with doxycycline (increased progesterone receptor isoform B expression); assay type: cell-based; details: with 10 ng/mL doxycycline (increased progesterone receptor isoform B), 72 hours, CellTiter-Glo 2.0
Method: as §1, §2, §3, §4, §5, §6

SMILES	Kd [1] [nM]	GI50 [2] [nM]	GI50 [3] [nM]
CCc1cnn2c(NCc3ccc(OCCN(C)c4ncc(C(=O)N[C@H]5C(C)(C)[C@H](Oc6ccc(C#N)c(Cl)c6)C5(C)C)cn4)nc3)cc(N3CCCC[C@H]3CCO)nc12 [Compound I-1]	< 50		
CCc1cnn2c(NCc3ccc(OCCOCCOCCOCCOCCN(C)c4ncc(C(=O)N[C@H]5C(C)(C)[C@H](Oc6ccc(C#N)c(Cl)c6)C5(C)C)cn4)nc3)cc(N3CCCC[C@H]3CCO)nc12 [Compound I-3]		< 500	< 500
CCc1cnn2c(NCc3ccc(OCCOCCOCCOCCOCCOC4CCN(c5ncc(C(=O)N[C@H]6C(C)(C)[C@H](Oc7ccc(C#N)c(Cl)c7)C6(C)C)cn5)CC4)nc3)cc(N3CCCC[C@H]3CCO)nc12 [Compound I-9]	< 50		
CCc1cnn2c(NCc3ccc(OCCN4CCN(CC5CCN(c6ncc(C(=O)N[C@H]7C(C)(C)[C@H](Oc8ccc(C#N)c(Cl)c8)C7(C)C)cn6)CC5)CC4)nc3)cc(N3CCCC[C@H]3CCO)nc12 [Compound I-41]		< 500	< 500
CCc1cnn2c(NCc3ccc(OC4CCN(CC5CCN(c6ncc(C(=O)N[C@H]7C(C)(C)[C@H](Oc8ccc(C#N)c(Cl)c8)C7(C)C)cn6)CC5)CC4)nc3)cc(N3CCCC[C@H]3CCO)nc12 [Compound I-46]		< 500	< 500
CCc1cnn2c(NCc3ccc(OCC4CCN(CC5CCN(c6ncc(C(=O)N[C@H]7C(C)(C)[C@H](Oc8ccc(C#N)c(Cl)c8)C7(C)C)cn6)CC5)CC4)nc3)cc(N3CCCC[C@H]3CCO)nc12 [Compound I-51]		< 500	< 500
CC(C)n1cc(-c2ccnc3[nH]c(C4CCN(CCN5CCN(CC6CCN(c7ncc(C(=O)NC8C(C)(C)C(Oc9ccc(C#N)c(Cl)c9)C8(C)C)cn7)CC6)CC5)CC4)cc23)ccc1=O (centres unmarked) [Compound I-74, N-[3-(3-chloro-4-cyano-phenoxy)-2,2,4,4-tetramethyl-cyclobutyl]-2-[4-[[4-[2-[4-[4-(1-isopropyl-6-oxo-3-pyridyl)-1H-pyrrolo [2,3-b]pyridin-2-yl]-1-piperidyl]ethyl]piperazin-1-yl]methyl]-1-piperidyl]pyrimidine-5-carboxamide]		< 500	< 500
CCc1cnn2c(NCc3ccc(N4CCC(N5CCN(C6CN(c7ncc(C(=O)N[C@H]8C(C)(C)[C@H](Oc9ccc(C#N)c(Cl)c9)C8(C)C)cn7)C6)CC5)CC4)nc3)cc(N3CCCC[C@H]3CCO)nc12 [Compound I-86]		< 500	< 500
CC1(C)[C@H](NC(=O)c2cnc(N3CCC(CN4CCN(CCN5C/C=C/CCOc6cccc(c6)-c6ccnc(n6)Nc6cccc(c6)C5)CC4)CC3)nc2)C(C)(C)[C@H]1Oc1ccc(C#N)c(Cl)c1 [Compound I-94]		> 3000	500 to 1500
Cc1ncc(-c2nc(Nc3ccc(C(=O)N4CC[C@H](N(C)CCOC5CCN(c6ncc(C(=O)N[C@H]7C(C)(C)[C@H](Oc8ccc(C#N)c(Cl)c8)C7(C)C)cn6)CC5)C4)cc3)ncc2F)n1C(C)C [Compound I-95, N-[3-(3-chloro-4-cyano-phenoxy)-2,2,4,4-tetramethyl-cyclobutyl]-2-[4-[2-[[(3S)-1-[4-[[5-fluoro-4-(3-isopropyl-2-methyl-imidazol-4-yl)pyrimidin-2-yl]amino]benzoyl]pyrrolidin-3-yl]-methyl-amino]ethoxy]-1-piperidyl]pyrimidine-5-carboxamide]		< 500	< 500

Now from value to molecule, other results behind:

Kd [1] [nM]	SMILES	GI50 [2] [nM]	GI50 [3] [nM]
< 50	CCc1cnn2c(NCc3ccc(OCCCCOCCOC4CCN(c5ncc(C(=O)N[C@H]6C(C)(C)[C@H](Oc7ccc(C#N)c(Cl)c7)C6(C)C)cn5)CC4)nc3)cc(N3CCCC[C@H]3CCO)nc12 [Compound I-34]		
< 50	CCc1cnn2c(NCc3ccc(OCCCCN4CCN(CC5CCN(c6ncc(C(=O)N[C@H]7C(C)(C)[C@H](Oc8ccc(C#N)c(Cl)c8)C7(C)C)cn6)CC5)CC4)nc3)cc(N3CCCC[C@H]3CCO)nc12 [Compound I-43]		
< 50	CCc1cnn2c(NCc3ccc(OCCOCC4CCN(CC5CCN(c6ncc(C(=O)N[C@H]7C(C)(C)[C@H](Oc8ccc(C#N)c(Cl)c8)C7(C)C)cn6)CC5)CC4)nc3)cc(N3CCCC[C@H]3CCO)nc12 [Compound I-45]		
< 50	CCc1cnn2c(NCc3ccc(OCCN4CCN(CC5CCN(c6ncc(C(=O)N[C@H]7C(C)(C)[C@H](Oc8ccc(C#N)c(Cl)c8)C7(C)C)cn6)CC5)CC4)nc3)cc(-c3ccccc3)nc12 [Compound I-47, N-((1r,3r)-3-(3-chloro-4-cyanophenoxy)-2,2,4,4-tetramethylcyclobutyl)-2-(4-((4-(2-((5-(((3-ethyl-5-phenylpyrazolo[1,5-a]pyrimidin-7-yl)amino)methyl)pyridin-2-yl)oxy)ethyl)piperazin-1-yl)methyl)piperidin-1-yl)pyrimidine-5-carboxamide]		
< 50	CCc1cnn2c(NCc3ccc(OCCCN4CCN(C5CN(c6ncc(C(=O)N[C@H]7C(C)(C)[C@H](Oc8ccc(C#N)c(Cl)c8)C7(C)C)cn6)C5)CC4)nc3)cc(N3CCCC[C@H]3CCO)nc12 [Compound I-60]		
< 50	CCc1cnn2c(NCc3ccc(OCCCN4CCC(C5CN(c6ncc(C(=O)N[C@H]7C(C)(C)[C@H](Oc8ccc(C#N)c(Cl)c8)C7(C)C)cn6)C5)CC4)nc3)cc(N3CCCC[C@H]3CCO)nc12 [Compound I-61]		
< 50	CCc1cnn2c(NCc3ccc(N4CCC(CN5CCC6CN(c7ncc(C(=O)N[C@H]8C(C)(C)[C@H](Oc9ccc(C#N)c(Cl)c9)C8(C)C)cn7)CCC6C5)CC4)nc3)cc(N3CCCC[C@H]3CCO)nc12 (some centres unmarked) [Compound I-71]		
< 50	CCc1cnn2c(NCc3ccc(N4CC(OCCN5CC6CN(c7ncc(C(=O)N[C@H]8C(C)(C)[C@H](Oc9ccc(C#N)c(Cl)c9)C8(C)C)cn7)CC6C5)C4)nc3)cc(N3CCCC[C@H]3CCO)nc12 (some centres unmarked) [Compound I-72]		
